According to ChEMBL document CHEMBL4376882, “Photodynamic Therapy for ras-Driven Cancers: Targeting G-Quadruplex RNA Structures with Bifunctional Alkyl-Modified Porphyrins” (J Med Chem, 2020):
The source made the active and inactive calls. The calls are words filed in the database; no cut-off is given here.

Assays:
Quadruplex DNA [1] = experiment: Binding affinity to NRAS RNA g-quadruplex (unknown origin) by fluorescence spectroscopy; format: nucleic-acid assay
PANC-1 [2] = experiment: Photodynamic antitumor activity against human PANC1 cells xenografted in SCID mouse assessed as reduction in tumor growth at 3 mg/kg administered intratumorally after 2 hrs photoirradiated by diode laser at 193 J/cm2 by micrometer caliper method; format: functional, organism-based
HEK293 = experiment: Cytotoxicity against human HEK293 cells assessed as reduction in metabolic activity after 24 to 72 hrs in dark followed by photoirradiation in presence of NADH by resazurin assay; format: ADME, cell-based
PANC-1 [3] = experiment: Induction of apoptosis in human PANC1 cells assessed as cleavage of PARP1 when photoirradiated at 7.2 J/cm2 by Western blot analysis; format: functional, cell-based
PANC-1 [4] = experiment: Induction of apoptosis in human PANC1 cells assessed as viable cells at 15 nM and photoirradiated at 7.2 J/cm2 measured after 6 to 24 hrs by annexin-V-propidium iodide staining based FACScalibur flow cytometry analysis (reference value: 91.9 %); format: functional; conditions: PANC-1, light or radiation study, read-out: Activity
[5] = Toxicity in SCID mouse xenografted with human PANC1 cells assessed as tissue damage around the irradiated tumor at 3 mg/kg administered intratumorally after 2 hrs photoirradiated by diode laser at 193 J/cm2; format: organism-based; conditions: in vivo, other
Quadruplex DNA [6] = experiment: Binding affinity to human KRAS utr-1 RNA g-quadruplex by fluorescence spectroscopy; format: nucleic-acid assay
PANC-1 [7] = experiment: Induction of apoptosis in human PANC1 cells assessed as late apoptotic cells at 10 nM and photoirradiated at 7.2 J/cm2 measured after 6 to 24 hrs by annexin-V-propidium iodide staining based FACScalibur flow cytometry analysis (reference value: 2.7 %); format: functional
[8] = target: GTPase KRas (Homo sapiens) (UniProt P01116); experiment: Inhibition of KRAS in human PANC1 cells assessed as decrease in KRAS mRNA level at 15 nM followed by 7.2 J/cm2 irradiation after 4 hrs by qRT-PCR analysis; format: cell-based
PANC-1 [9] = experiment: Induction of apoptosis in human PANC1 cells assessed as cleavage of caspase 7 when photoirradiated at 7.2 J/cm2 by Western blot analysis; format: functional, cell-based
Quadruplex DNA [10] = experiment: Binding affinity to human KRAS utr-z RNA g-quadruplex by fluorescence spectroscopy; format: nucleic-acid assay
Quadruplex DNA [11] = experiment: Binding affinity to human KRAS utr-c RNA g-quadruplex by fluorescence spectroscopy; format: nucleic-acid assay
PANC-1 [12] = experiment: Induction of apoptosis in human PANC1 cells assessed as necrotic cells at 5 nM and photoirradiated at 7.2 J/cm2 measured after 6 to 24 hrs in presence of NAC by annexin-V-propidium iodide staining based FACScalibur flow cytometry analysis (reference value: 1 %); format: functional
[13] = Aggregation property of compound at > 40 degree C; format: physicochemical
PANC-1 [14] = experiment: Induction of apoptosis in human PANC1 cells assessed as late apoptotic cells at 5 nM and photoirradiated at 7.2 J/cm2 measured after 6 to 24 hrs by annexin-V-propidium iodide staining based FACScalibur flow cytometry analysis (reference value: 2.7 %); format: functional
[15] = target: GTPase KRas (Homo sapiens) (UniProt P01116); experiment: Inhibition of KRAS in human PANC1 cells assessed as downregulation of KRAS expression at 15 nM followed by 7.2 J/cm2 irradiation after 4 hrs by Western blot analysis (reference value: 5 %); format: cell-based
PANC-1 [16] = experiment: Induction of apoptosis in human PANC1 cells assessed as necrotic cells at 5 nM and photoirradiated at 7.2 J/cm2 measured after 6 to 24 hrs by annexin-V-propidium iodide staining based FACScalibur flow cytometry analysis (reference value: 0.7 %); format: functional
[17] = Drug uptake in human PANC1 cells at 5 uM after 16 hrs by FACS analysis; format: ADME, cell-based; conditions: panc-1, 16 h
[18] = target: GTPase KRas (Homo sapiens) (UniProt P01116); experiment: Inhibition of KRAS in human PANC1 cells assessed as downregulation of KRAS expression at 15 nM after 4 hrs by Western blot analysis; format: cell-based
PANC-1 [19] = experiment: Induction of apoptosis in human PANC1 cells assessed as cleavage of caspase 3 when photoirradiated at 7.2 J/cm2 by Western blot analysis; format: functional, cell-based
[20] = target: GTPase NRas (Homo sapiens) (UniProt P01111); experiment: Inhibition of NRAS in human PANC1 cells assessed as downregulation of NRAS expression at 15 nM after 4 hrs by Western blot analysis; format: cell-based
PANC-1 [21] = experiment: Induction of ROS generation in human PANC1 cells cleavage of CM-H2DCFDA to CM-H2DCF by intracellular esterase by measuring green fluorescence emission incubated for 16 hrs in presence of NAC followed by 7.2J/cm2 photoirradiation and subsequent compound washout measured after 40 mins by CM-H2DCFDA staining-based FACSCalibur flow cytometry; format: functional, cell-based
[22] = Drug uptake in human PANC1 cells at 5 uM and 4 degree C after 16 hrs by FACS analysis relative to 37 degree C; format: ADME, cell-based; conditions: panc-1, 16 h
PANC-1 [23] = experiment: Induction of apoptosis in human PANC1 cells assessed as viable cells at 15 nM and photoirradiated at 7.2 J/cm2 measured after 6 to 24 hrs in presence of NAC by annexin-V-propidium iodide staining based FACScalibur flow cytometry analysis (reference value: 94.5 %); format: functional; conditions: PANC-1, light or radiation study, read-out: Activity
[24] = Induction of ROS-mediated […] labelled 20-mer utr-z stem-loop RNA (unknown origin) degradation at 0.6 uM incubated for 30 mins followed by photoirradiation for 15 to 30 mins by PAGE analysis
PANC-1 [25] = experiment: Induction of apoptosis in human PANC1 cells assessed as viable cells at 5 nM and photoirradiated at 7.2 J/cm2 measured after 6 to 24 hrs by annexin-V-propidium iodide staining based FACScalibur flow cytometry analysis (reference value: 91.9 %); format: functional; conditions: PANC-1, light or radiation study, read-out: Activity
PANC-1 [26] = experiment: Induction of apoptosis in human PANC1 cells assessed as necrotic cells at 15 nM and photoirradiated at 7.2 J/cm2 measured after 6 to 24 hrs by annexin-V-propidium iodide staining based FACScalibur flow cytometry analysis (reference value: 0.7 %); format: functional
MIA PaCa-2 = experiment: Cytotoxicity against human MIAPaCa2 cells harboring G12C point mutation assessed as reduction in metabolic activity after 48 hrs in dark followed by photoirradiation in presence of NADH by resazurin assay; format: functional, cell-based
PANC-1 [27] = experiment: Induction of apoptosis in human PANC1 cells assessed as early apoptotic cells at 5 nM and photoirradiated at 7.2 J/cm2 measured after 6 to 24 hrs in presence of NAC by annexin-V-propidium iodide staining based FACScalibur flow cytometry analysis (reference value: 3.1 %); format: functional
PANC-1 [28] = experiment: Cytotoxicity against human PANC1 cells assessed as reduction in metabolic activity at 20 nM after 24 to 72 hrs in dark followed by photoirradiation in presence of NADH by resazurin assay; format: functional, cell-based
[29] = Drug uptake in human HEK293 cells at 5 uM and 4 degree C after 16 hrs by FACS analysis relative to 37 degree C; format: ADME, cell-based; conditions: hek293, 16 h
PANC-1 [30] = experiment: Antitumor activity against human PANC1 cells xenografted in SCID mouse assessed as reduction in tumor growth at 3 mg/kg administered intratumorally measured after 14 days by micrometer caliper method; format: functional, organism-based
[31] = Drug localization in cytoplasm of human PANC1 cells at 5 uM after 6 hrs by Hoechst staining based confocal microscopy; format: ADME, subcellular; conditions: panc-1, 6 h

Sequence of GTPase KRas (Homo sapiens) (P01116 whole entry, looked up): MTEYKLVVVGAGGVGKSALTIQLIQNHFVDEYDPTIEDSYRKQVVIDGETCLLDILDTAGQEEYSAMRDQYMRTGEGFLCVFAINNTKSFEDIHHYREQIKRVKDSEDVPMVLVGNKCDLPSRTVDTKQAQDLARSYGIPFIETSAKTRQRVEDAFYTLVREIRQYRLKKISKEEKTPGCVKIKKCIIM
Sequence of GTPase NRas (Homo sapiens) (P01111 whole entry): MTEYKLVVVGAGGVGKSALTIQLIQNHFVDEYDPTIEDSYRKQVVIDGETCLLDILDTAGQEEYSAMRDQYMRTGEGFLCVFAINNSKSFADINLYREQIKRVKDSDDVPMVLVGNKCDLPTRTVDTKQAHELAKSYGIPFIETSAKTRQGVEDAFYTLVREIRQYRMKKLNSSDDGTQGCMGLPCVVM

In the case of `CCCCCCCCCCCCCC[n+]1ccc(-c2c3nc(c(-c4cc[n+](C)cc4)c4ccc([nH]4)c(-c4cc[n+](C)cc4)c4nc(c(-c5cc[n+](C)cc5)c5ccc2[nH]5)C=C4)C=C3)cc1.[I-].[I-].[I-].[I-]`, the Kd (Quadruplex DNA [1]) is reported as 107 nM, the Activity (PANC-1 [2]) is reported as “Active” and the Activity (HEK293) is reported as “Non-Toxic”. The Activity (PANC-1 [3]) was “Active”, the viability at 0.015 µM (PANC-1 [4]) was 70.6% and the Activity [5] was “Non-Toxic”. For the same compound, the Kd (Quadruplex DNA [6]) was 236 nM, the Activity (PANC-1 [7]) was 10.9% and the inhibition [8] was “Active”. For the same compound, the Activity (PANC-1 [9]) was “Active”, the Kd (Quadruplex DNA [10]) was 219 nM and the Kd (Quadruplex DNA [11]) was 235 nM. The Activity (PANC-1 [12]) was 1.2%, the Activity [13] was “Active” and the Activity (PANC-1 [14]) was 6.1%. The inhibition [15] was 20%, the Activity (PANC-1 [16]) was 0.6% and the Drug uptake [17] was “Active”. For the same compound, the inhibition [18] was “inactive”, the Activity (PANC-1 [19]) was “Active” and the inhibition [20] was “inactive”. The Activity (PANC-1 [21]) was “inactive”, the Drug uptake [22] was 24% and the viability at 0.015 µM (PANC-1 [23]) was 89.4%. For the same compound, the Activity [24] was “inactive”, the viability at 0.005 µM (PANC-1 [25]) was 88.2% and the Activity (PANC-1 [26]) was 4.1%. The Activity (MIA PaCa-2) was “Active”, the Activity (PANC-1 [27]) was 2.4% and the Activity (PANC-1 [28]) was “Active”. The Drug uptake [29] was “Active”, the Activity (PANC-1 [30]) was “inactive” and the Drug uptake [31] was “Active”.
